Laboratory results as given in patent US20260001875A1, “AMINOPYRIMIDINYL DERIVATIVES FOR THE TREATMENT OF PARKINSON'S DISEASE” (UNIVERSITY OF DUNDEE, priority 2022, published 2026).
Entries after “also recorded” stand apart in the source; their conditions may differ.

Assays:
[1] = Stability in mouse liver microsome; assay type: in vitro ADME; conditions: liver microsomes, read-out: T1/2 in mouse liver microsome
[2] = Stability in mouse hepatocytes; assay type: in vitro ADME; conditions: read-out: T1/2 in mouse hepatocytes
[3] = Pharmacokinetic study in mice (plasma, brain, CSF); assay type: in vivo, mouse; conditions: for AUC(0-inf) / AUC(0-t) / half-life: male, C57BL/6, mouse; for half-life: read-out: metabolic half-life (converted)
Procedure: PK profiling was outsourced and undertaken by Shanghai ChemPartner Co., Ltd. All animal experiments performed were conducted in compliance with the Institutional Animal Care and Use Committee (IACUC) and the Office of Laboratory Animal Welfare (OLAW) guidelines. Six- to eight-week-old C57BL/6 male mice purchased from Jihui Laboratory Animal Co. LTD were used in the study. […] The animals were restrained manually at the designated time points (0.083, 0.25, 0.5, 1, 2, 4, and 8 h); approximately, 110 μL of blood sample was collected via facial vein into K2EDTA tubes. Three mice per time point were used, resulting in a total of 21 mice for each administration route. The blood sample was put on ice and centrifuged at 2000 g for 5 min to obtain the plasma sample within 15 min. The plasma, brain, CSF samples were stored at approximately −70° C. until analysis. A 30 μL aliquot of plasma was added with 200 μL of internal standard (Glipozode, 40 ng/mL) in MeCN with 5% citri. The mixture was then vortexed for 1 min and then centrifuged for 10 min at 5800 rpm. The supernatant (100 μL) was transferred to a new plate. The solvent (1 μL) was injected to LC-MS/MS. LC-MS/MS instrument used: SCIEX LC-MS/MS-49 (Triple Quad 6500+). Data was analyzed by WinNonLin and Microsoft Excel.

LRRK2 pSer935 = test: LRRK2 Ser935 dephosphorylation in PBMC; assay type: cell-based, human; conditions: time course at 300 nM
Procedure: PBMC cells were separated from human blood following existing protocol (dx.doi.org/10.17504/protocols.io.bnhxmb7n) and pelleted by centrifugation at 1000 g for 2 min. The supernatant was discarded and the PBMC pellet was resuspended in PBS containing 2% FBS for washing. The suspension was centrifuged at 1000 g for 2 min again and the PBMC pellet was resuspended in RPMI-1640 (Gibco) media supplemented with 10% FBS. The cells were then seeded into 6-well plates and treated with testing compounds at indicated concentrations and time period. After treatment, the cells were collected into 2-ml Eppendorf tube and centrifuged at 500 g for 2 min to pellet the cells, the supernatant was discarded, and the pellet was resuspended in 1 ml PBS and centrifuged at 500 g for 2 min again. […] The supernatants were collected for analysis by quantitative immunoblotting. […] Protein concentrations of cell lysates were determined using Pierce™ BCA Protein Assay Kit (ThermoFisher).
Cell lysates containing a quarter of a volume of 4× NuPAGE LDS sample buffer (NP0007) supplemented with 5% β-mercaptoethanol, were heated at 95° C. for 5 minutes. […] Thereafter, the membranes were washed with TBS-T three times with a 15-minute incubation for each wash, and protein bands were acquired via near-infrared fluorescent detection using the Odyssey CLx imaging system and quantified using Image Studio software. […]

[4] = CSF, intravenous 5 mg/Kg single dose
[5] = brain, gavage (oral) 30 mg/Kg single dose
[6] = brain, intraperitoneal 30 mg/Kg single dose
[7] = brain, intravenous 5 mg/Kg single dose
[8] = ip, brain, intraperitoneal 30 mg/Kg single dose
[9] = gavage (oral) 30 mg/Kg single dose
[10] = intraperitoneal 30 mg/Kg single dose

For `CNc1nc(Nc2ccc(C(=O)N3CCN(C[C@H]4CC[C@H](CSC(C)(C)[C@H](NC(=O)C5(F)CC5)C(=O)N5C[C@H](O)CC5C(=O)NCc5ccc(-c6scnc6C)cc5)CC4)CC3)cc2OC)ncc1Cl` (stereo partly drawn) [XL01126, (2S,4R)-1-((R)-3-((((1R,4R)-4-((4-(4-((5-chloro-4-(methylamino)pyrimidin-2-yl)amino)-3-methoxybenzoyl)piperazin-1-yl)methyl)cyclohexyl)methyl)thio)-2-(1-fluorocyclopropane-1-carboxamido)-3-methylbutanoyl)-4-hydroxy-N-(4-(4-methylthiazol-5-yl)benzyl)pyrrolidine-2-carboxamide], the half-life [1] was 3.65 min, the half-life [2] was 5.24 h and the “maximum concentration in cerebrospinal fluid (CSF)” value [3, 4] was 27.4 ng/mL. The “time of maximum concentration in CSF” value [3, 4] was 0.083 h, the “maximum concentration in brain tissue” value [3, 5] was 27 ng/mL and the “time of maximum concentration in brain tissue” value (“time … in brain tissue” for short) [3, 5] was 2 h. For the same molecule, the “maximum concentration in brain tissue” value [3, 6] was 218 ng/mL, the “time … in brain tissue” value [3, 6] was 0.5 h and the “maximum concentration in brain tissue” value [3, 7] was 155 ng/mL. The “time … in brain tissue” value [3, 7] was 0.083 h, the “reaches CSF (in words)” value ([3]; intraperitoneal 30 mg/Kg and orally 30 mg/Kg) was “also reaches CSF” and the “blood brain barrier penetration (in words)” value ([3]; intravenous 5 mg/Kg, intraperitoneal 30 mg/Kg, oral 30 mg/Kg) was “capable of penetrating blood brain barrier; also recorded: can penetrant blood brain barrier”. For the same molecule, the AUC(0-inf) [3, 4] was 0.24 µg·h/mL, the AUC(0-t) [3, 4] was 0.107 µg·h/mL and the half-life [3, 4] was 8.59 h. The AUC(0-inf) [3, 5] was 0.402 µg·h/mL, the AUC(0-t) [3, 5] was 0.142 µg·h/mL and the half-life [3, 5] was 10.7 h. The AUC(0-inf) [3, 7] was 0.349 µg·h/mL, the AUC(0-t) [3, 7] was 0.258 µg·h/mL and the half-life [3, 7] was 3.67 h. For the same molecule, the AUC(0-inf) [3, 8] was 0.884 µg·h/mL, the AUC(0-t) [3, 8] was 0.752 µg·h/mL and the half-life [3, 8] was 2.79 h. For the same molecule, the maximum plasma concentration [3, 9] was 3620 ng/mL, the “time of maximum plasma concentration” value [3, 9] was 2 h and the maximum plasma concentration [3, 10] was 7700 ng/mL. For the same molecule, the “time of maximum plasma concentration” value [3, 10] was 0.25 h and the “T1/2 of LRRK2 dephosphorylation in PBMC” value (LRRK2 pSer935) was 1 h.
